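Compound exposure: 48 hours, 5 concentrations, 96-well plates. GI50 is the concentration that inhibits growth by half. TGI: concentration producing complete growth inhibition.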
Tests used:
Assay in all cases: growth of human tumour cells (NCI), 48 h
MALME-3M melanoma = tested on: MALME-3M melanoma
NCI-H23 lung = tested on: NCI-H23 lung
NCI/ADR-RES ovarian = tested on: NCI/ADR-RES ovarian
A498 renal = tested on: A498 renal
SK-MEL-28 melanoma = tested on: SK-MEL-28 melanoma
T-47D breast = tested on: T-47D breast
NCI-H522 lung = tested on: NCI-H522 lung
SF-539 CNS = tested on: SF-539 CNS
MDA-MB-435 = tested on: MDA-MB-435
UACC-62 melanoma = tested on: UACC-62 melanoma

SMILES | GI50 (MALME-3M melanoma) [µM] | TGI (MALME-3M melanoma) [µM] | GI50 (NCI-H23 lung) [µM] | TGI (NCI-H23 lung) [µM] | GI50 (NCI/ADR-RES ovarian) [µM] | TGI (NCI/ADR-RES ovarian) [µM] | GI50 (A498 renal) [µM] | TGI (A498 renal) [µM] | GI50 (SK-MEL-28 melanoma) [µM] | TGI (SK-MEL-28 melanoma) [µM] | GI50 (T-47D breast) [µM] | TGI (T-47D breast) [µM] | GI50 (NCI-H522 lung) [µM] | TGI (NCI-H522 lung) [µM] | GI50 (SF-539 CNS) [µM] | TGI (SF-539 CNS) [µM] | GI50 (MDA-MB-435) [µM] | TGI (MDA-MB-435) [µM] | GI50 (UACC-62 melanoma) [µM] | TGI (UACC-62 melanoma) [µM]
Cn1nc(-c2ccc(Cl)cc2)nc2c(=O)n(C)c(=O)nc1-2 | 0.382 | 1.14 | 1.18 | 3.16 | 1.33 | 4.47 | 0.949 | 2.24 | 1.24 | 3.13 | 1.12 | 3.43 | 0.864 | 1.67 | 1.08 | 2.29 | 0.137 | 0.405 | 0.745 | 1.68
CCN1C(=O)CCCc2c1ccc(Nc1ncc(Cl)c(NC3[C@@H](C(N)=O)[C@@H]4C=C[C@H]3C4)n1)c2OC (some centres not stated) | 0.998 | 3.4 | 1.56 | 9.47 | 2.35 | > 100 | 0.529 | 2.65 | 1.56 | 6.96 | 1.91 | 14.3 | 1.16 | 6.13 | 1.23 | 8.94 | 0.917 | 9.85 | 0.933 | 2.59
ON(Cc1ccccc1)C(=S)c1ccccc1 | – | > 100 | – | 47.1 | – | – | – | > 100 | – | > 100 | – | > 100 | – | 28 | – | 44.4 | – | – | – | 25.4
N[C@@H]1C(=O)N2C(C(=O)OC(c3ccccc3)c3ccccc3)=C(CCl)CS[C@H]12 | > 74.5 | > 100 | 95.6 | > 100 | 38.2 | > 100 | > 100 | > 100 | 22.4 | 53.8 | 46 | > 100 | 31 | > 84.7 | 23.5 | 50.2 | 35.1 | > 100 | 42.7 | > 91.2
COc1cc(-c2cc(-c3ccc(Nc4ccnc5cc(Cl)ccc45)cc3)nc(N3CCOCC3)n2)cc(OC)c1OC | 1.86 | 3.97 | 2.2 | 6.22 | 2.3 | 7.26 | 28.2 | 74.4 | 1.98 | 3.93 | 2.06 | 4.65 | 2.03 | 5.03 | 1.94 | 3.67 | 1.75 | 3.48 | 1.98 | 3.83
NC1=NC(c2ccc(Cl)cc2)N(c2ccc(S(N)(=O)=O)cc2)C(N)=N1 (configuration not stated) | – | > 100 | – | > 100 | – | > 100 | – | > 100 | – | > 100 | – | > 100 | – | > 100 | – | > 100 | – | > 100 | – | > 100
CC(=O)OC1=CC2=CC[C@H]3[C@@H]4CCC(=O)[C@@]4(C)CC(=O)[C@]3(S)[C@@]2(C)CC1 | – | 57.2 | – | > 100 | – | > 100 | – | > 100 | – | > 100 | – | > 100 | – | 63 | – | 43.1 | – | > 100 | – | 93.1
Brc1ccc2[nH]cc(-c3nc(-c4c[nH]c5ncccc45)cs3)c2c1 | 4.46 | 18.8 | 3.55 | 18.7 | 3.38 | 26.1 | 1.94 | 10.9 | 4.27 | 16.1 | 4.97 | 20.3 | 3.53 | 10.8 | 5.37 | 23.9 | 4.04 | 15.8 | 3.64 | 16.6
COc1ccc(C(c2ccc(OCCN(C)C)cc2)c2cc3ccccc3c3ccccc23)cc1 (configuration not stated) | 1.55 | 3.12 | 1.83 | 3.8 | 1.71 | 3.39 | 0.536 | 20.9 | 1.63 | 3.11 | 1.47 | 3.12 | 1.55 | 2.98 | 1.7 | 3.13 | 1.71 | 3.14 | 1.81 | 3.52
COC1=C(C)C(=O)c2c(c(CCCl)c3n2CCC3O)C1=O (configuration not stated) | 0.23 | 0.584 | 0.133 | 0.799 | 0.872 | 7.61 | 0.145 | 0.313 | 0.811 | 3.85 | 16.3 | > 82.9 | 0.224 | 1.17 | 0.302 | 1.16 | 1.24 | 2.79 | 0.319 | 1.28
Oc1ccc(-c2nc3ccc4[nH]ncc4c3c3c2CCCC3)c(F)c1 | 3.36 | 12.1 | 3.15 | 14 | 3.91 | 53.3 | 2.25 | 6.51 | 2.74 | 12.4 | 1.57 | 6.61 | 1.25 | 4.72 | 2.41 | 10.2 | 1.75 | 10.9 | 1.67 | 4.37
COC(=O)C1OC2(CCCC3CC32)O[C@H]1C(=O)OC (some centres not stated) | – | > 100 | – | > 100 | – | > 100 | – | – | – | > 100 | – | – | – | > 100 | – | > 100 | – | > 100 | – | > 100
CC1=CC(=O)C(C(C)C)=CC1=Nc1cc(Br)c(O)c(Br)c1 | 14.1 | 33.4 | 4.26 | 26.1 | – | – | 3.81 | 19.6 | 6.82 | 22.4 | 5.74 | 21.2 | 4.42 | 18 | 2.29 | 5.96 | 2.1 | 6.13 | 2.86 | 13.1
CCOC(=O)c1c(C)n(Cc2ccccc2)c2c1cc(O)c1[nH]c(Cc3ccccc3)nc12 | 9.93 | 58 | 9.19 | > 56 | 18.9 | > 57.9 | 28.5 | > 86.1 | 24.3 | > 100 | 9.74 | > 36.6 | – | – | 17.1 | > 100 | > 42.8 | > 100 | 23.8 | > 100
